The term IC50 denotes the concentration that gives 50% inhibition.

Data on six compounds can be found in article PMC7246635, “Structure–Activity Relationship of RGD-Containing Cyclic Octapeptide and αvβ3 Integrin Allows for Rapid Identification of a New Peptide Antagonist” (International Journal of Molecular Sciences, 2020).

Assay [1] concerns the target T1, αvβ3 integrin (Homo sapiens, UniProt P05106+P06756).
T1 construct: expressed in transfected cells; host or cells: K562 human leukemia cells (ATCC) transfected with αvβ3 integrin
The assay can be described thus: Competitive binding assay by flow cytometry: competition with 1 μM biotinylated LXW7 binding to αvβ3-K562 cells. As for the experimental part: To further verify our in silico screening results, we examined the binding of new LXW-analogous peptides to αvβ3 integrin in αvβ3-K562 cells. LXZ2 with DNTL as the X7 residue (Figure 6 left) was arbitrarily chosen and tested through flow cytometry for competing with 1 μM biotinylated LXW7 binding to αvβ3 integrin. […] The IC50 of the peptide inhibiting biotinylated LXW7 binding with K562/αvβ3+ cells was determined (Figure 6 right).
Figure 6 (A) Chemical structure of LXZ2; (B) Competitive binding assay. […] Positive control (cyan), cells were treated with 1μM biotinylated LXW7 and streptavidin-PE successively, and measured with flow cytometry. Negative control (red) represents cells without treatment of biotinylated LXW7. (C) IC50 measurement of LXW7 and LXZ2. The IC50s were determined with competitive binding assay by using a series of concentrations of LXW7 or LXZ2 competing with 1 μM biotinylated LXW7 binding to αvβ3-K562 cells. TEXT PRINTED IN THE PICTURE: (C) LXW7: IC50(μM): 1.53 | (C) LXZ2: IC50(μM): 0.31
The human leukemia cancer cells (K562, ATCC, Manassas, VA, USA) transfected with αvβ3-integrin were grown in the RPMI1640 medium and used for the assay as previously described. […] The samples were washed with 1 mL PBS containing 1% FBS for three times, then incubated with a 1:500 dilution of streptavidin-PE (1 mg/mL) for 30 min on ice followed by a single wash with 1 mL of PBS containing 1% FBS. Finally, the samples were analyzed via flow cytometry (Coulter XL-MCL). To measure the half-maximal inhibitory concentration (IC50) of the peptides, various diluted peptide solutions were mixed with 1.0 μM biotinylated LXW7, then incubated with cells, and followed by streptavidin-PE incubation. The samples were run through flow cytometer and Mean Fluorescence Intensity was decided for each individual sample. The IC50s were calculated from each sample based on the readings.
For orientation: A flow cytometer gives signals particle by particle.

The test system of assay [2] is αvβ3 integrin. Particulars: cited from earlier work. The source says:
In our current study, 20 new LXW analogs were predicted via in silico screening with a high binding affinity to αvβ3 integrin. […] These X7 amino acids can be classified into two groups according to their side-chain structures—cyclic (total 13) and non-cyclic (aliphatic, total 7). […] Among the cyclic amino acids, the aromatic (mainly polycyclic excepted DPH ...

The target in assay [3] is T1, αvβ3 integrin. The following applies: cited from earlier work. The source says: Targeting tumor cells or tumor vasculature by RGD-based strategies is a promising approach for delivering anticancer drugs or contrast agents for cancer therapy and diagnosis. RGD-based strategies include RGD peptide or peptidomimetic drugs, RGD-conjugates, and the grafting of the RGD peptide or peptidomimetic, as targeting ligand, at the surfa ... || (+ 4 further places)

Assay [4] relates to αIIbβ3. Particulars: integrin expressed on K562 cells; cited from earlier work. The source says:
(§1) Structure–activity relationship between LXW peptides and αvβ3 LXW analogs are a new category of RGD-containing cyclopeptides that binds specifically to αvβ3 integrin [7, 8]. The LXW analogs were designed and screened using OBOC combinatorial technology. Unlike other RGD cyclopeptide antagonists (i.e., cilengitide), LXW analogs are extended circular structures with a disulfide bond formed between two cysteines in the peptide sequence (cGRGDdXc). D-configuration of two cysteines in these analogs is essential for the antagonistic activity, which can force the cyclopeptide to adopt ...

Assay [5] deals with αvβ5. The following applies: integrin expressed on K562 cells; cited from earlier work.
Text: as §1

Assay [6] relates to α5β1. The following applies: integrin expressed on K562 cells; cited from earlier work.
Text: as §1

The test system of assay [7] is αvβ3. The following applies: integrin expressed on K562 cells; cited from earlier work.
Text: as §1

Setting [8] is: series of peptide concentrations competing with 1 μM biotinylated LXW7 binding to αvβ3-K562 cells, flow cytometry, streptavidin-PE, PBS, 10% FBS, 1 mM MnCl2, 30 min on ice, Figure 6C, read-out: IC50.
The mark [9] stands for this setting: concentration of peptide required for inhibition of 0.5 µmoL/L biotinylated LXW7 binding to K562/αvβ3+ cells by half, Table 1.
[10] abbreviates: known IC50s from previous in vitro screening, binding to αvβ3 integrin, Table 3.

Where two headings read alike, the source gives them in different places. Bridge positions count the residues as written; N and C are the ends. Square brackets hold non-standard residues; d marks the D form. Ends that are not written are not given here. Peptide text beside a SMILES is read from it. A value given as a limit tells only on which side of the number the result lay.

Consider `CC(C)[C@H]1NC(=O)[C@@H](CC(=O)O)NC(=O)[C@H](CC(=O)O)NC(=O)CNC(=O)[C@H](CCCNC(=N)N)NC(=O)CNC(=O)[C@H](N)CSSC[C@H](C(N)=O)NC1=O` [LXW7] (H-[dC]GRGD[dD][dV][dC]-NH2; disulfide 1-8), for which the IC50 in assay [1] (setting [8]) was found to be 1530 nM.

With cilengitide, the concentration for half-maximal inhibition (IC50) in assay [2] was 250 nM.

For “CGRGDdvC-NH2 (disulfide) (CGRGD[dD][dV]C-NH2; disulfide 1-8; N-terminus assumed; SMILES CC(C)[C@H]1NC(=O)[C@@H](CC(=O)O)NC(=O)[C@H](CC(=O)O)NC(=O)CNC(=O)[C@H](CCCNC(=N)N)NC(=O)CNC(=O)[C@@H](N)CSSC[C@@H](C(N)=O)NC1=O) [LXW11, LXW7 isomer CGRGDdvC-NH2 with two L-cysteines]”, the half-maximal inhibitory concentration (IC50) in assay [3] (setting [9]) and in assay [3] (setting [10]) was > 20000 nM each time.

Take “LXW26: LXW analog with D-Ile as X amino acid (CGRGDDIC; cyclic via D-Cys1-D-Cys8 disulfide; D-Cys1, D-Asp6, D-Ile7, D-Cys8; C-terminal amide (template cGRGDdXc-NH2, X = D-Ile))”: in assay [3] (setting [10]), the half-inhibitory concentration (IC50) is 1840 nM.

On to `N=C(N)NCCC[C@@H]1NC(=O)CNC(=O)[C@H](N)CSSC[C@H](C(N)=O)NC(=O)[C@@H](Cc2c3ccccc3cc3ccccc23)NC(=O)[C@@H](CC(=O)O)NC(=O)[C@H](CC(=O)O)NC(=O)CNC1=O` [LXZ2], for which the “binding affinity compared with LXW7 in competitive binding” value in assay [1] (5 μM peptide competes with 1 μM biotinylated LXW7 binding to αvβ3-K562 cells, flow cytometry, Figure 6B) is on record as “stronger binding affinity than the first lead—LXW7”. In addition, the half-inhibitory concentration (IC50) in assay [1] (converted, referred to LXW7 in Table 3, read-out: converted IC50) stood at 90 nM; in assay [1] (setting [8]), 310 nM.

“cGRGDd-DNal1-c-NH2 (disulfide) [LXW64, cyclic octapeptide cGRGDd-DNal1-c-NH2 with 3-(1-naphthyl)-D-alanine at X7]”: the “binding to αIIbβ3” value in assay [4] was “weak or no binding”. The “binding to αvβ5” value in assay [5] is on record as “weak or no binding”. In assay [6], the “binding to α5β1” value is “weak or no binding”. In addition, in assay [7], the “binding with αvβ3” value is “significant positive binding”. In assay [3] (binding affinity to αvβ3 relative to LXW7), the “higher binding affinity than LXW7” value is recorded as 6 fold. Also, the half-inhibitory concentration (IC50) in assay [3] (setting [9]) and in assay [3] (setting [10]) was 70 nM throughout.
